Laboratory results as given in ChEMBL document CHEMBL3734705, “Synthesis and in vitro cytotoxicity of novel C-12 substituted-14-deoxy-andrographolide derivatives as potent anti-cancer agents” (2015).
The source made the active and inactive calls. No cut-off for these calls is given here.

Columns and labels:
[1] = Cytotoxicity against human RPMI8226 cells assessed as growth level at 10 uM after 48 hrs by SRB assay; type: functional, RPMI-8226
SR = assay: Cytotoxicity against human SR cells assessed as growth level at 10 uM after 48 hrs by SRB assay; type: functional
EKVX = assay: Cytotoxicity against human EKVX cells assessed as growth level at 10 uM after 48 hrs by SRB assay; type: functional
KM12 [2] = assay: Cytotoxicity against human KM12 cells assessed as growth level at 10 uM after 48 hrs by SRB assay; type: functional
[3] = Cytotoxicity against human SW620 cells assessed as growth level at 10 uM after 48 hrs by SRB assay; type: functional, SW-620
[4] = Cytotoxicity against human SNB75 cells assessed as growth level at 10 uM after 48 hrs by SRB assay; type: functional, SNB-75
MDA-MB-435 [5] = assay: Cytotoxicity against human MDA-MB-435 cells assessed as growth level at 10 uM after 48 hrs by SRB assay; type: functional
[6] = Cytotoxicity against human UACC257 cells assessed as growth level at 10 uM after 48 hrs by SRB assay; type: functional, UACC-257
[7] = Cytotoxicity against human OVCAR3 cells assessed as growth level at 10 uM after 48 hrs by SRB assay; type: functional, OVCAR-3
[8] = Cytotoxicity against human OVCAR8 cells assessed as growth level at 10 uM after 48 hrs by SRB assay; type: functional, OVCAR-8
[9] = Cytotoxicity against human NCI-ADR-RES cells assessed as growth level at 10 uM after 48 hrs by SRB assay; type: functional
[10] = Cytotoxicity against human Hs578T cells assessed as growth level at 10 uM after 48 hrs by SRB assay; type: functional, Hs-578T
MDA-MB-468 = assay: Cytotoxicity against human MDA-MB-468 cells assessed as growth level at 10 uM after 48 hrs by SRB assay; type: functional
[11] = Cytotoxicity against human HL-60(TB) cells assessed as growth inhibition at 10 uM after 48 hrs by SRB assay; type: functional; conditions: HL-60, 48 h, read-out: GI
[12] = Cytotoxicity against human HOP92 cells assessed as growth inhibition at 10 uM after 48 hrs by SRB assay; type: functional; conditions: HOP-92, 48 h, read-out: GI
NCI-H322M = assay: Cytotoxicity against human NCI-H322M cells assessed as growth inhibition at 10 uM after 48 hrs by SRB assay; type: functional; conditions: for inhibition of growth at 10 µM: read-out: GI
[13] = Cytotoxicity against human HCT15 cells assessed as growth inhibition at 10 uM after 48 hrs by SRB assay; type: functional; conditions: HCT-15, 48 h, read-out: GI
HT-29 = assay: Cytotoxicity against human HT-29 cells assessed as growth inhibition at 10 uM after 48 hrs by SRB assay; type: functional; conditions: HT-29, 48 h, read-out: GI
KM12 [14] = assay: Cytotoxicity against human KM12 cells assessed as growth inhibition at 10 uM after 48 hrs by SRB assay; type: functional; conditions: KM12, 48 h, read-out: GI
MDA-MB-435 [15] = assay: Cytotoxicity against human MDA-MB-435 cells assessed as growth inhibition at 10 uM after 48 hrs by SRB assay; type: functional; conditions: MDA-MB-435, 48 h, read-out: GI
SK-MEL-5 = assay: Cytotoxicity against human SK-MEL-5 cells assessed as growth inhibition at 10 uM after 48 hrs by SRB assay; type: functional; conditions: SK-MEL-5, 48 h, read-out: GI
[16] = Cytotoxicity against human IGROV1 cells assessed as growth inhibition at 10 uM after 48 hrs by SRB assay; type: functional; conditions: IGROV-1, 48 h, read-out: GI
[17] = Cytotoxicity against human OVCAR3 cells assessed as growth inhibition at 10 uM after 48 hrs by SRB assay; type: functional; conditions: OVCAR-3, 48 h, read-out: GI
786-0 = assay: Cytotoxicity against human 786-0 cells assessed as growth inhibition at 10 uM after 48 hrs by SRB assay; type: functional; conditions: 786-0, 48 h, read-out: GI
[18] = Cytotoxicity against human UO31 cells assessed as growth inhibition at 10 uM after 48 hrs by SRB assay; type: functional; conditions: UO-31, 48 h, read-out: GI
[19] = Cytotoxicity against human Hs578T cells assessed as growth inhibition at 10 uM after 48 hrs by SRB assay; type: functional; conditions: Hs-578T, read-out: GI
[20] = Cytotoxicity against human SNB19 cells assessed as growth inhibition at 10 uM after 48 hrs by SRB assay; type: functional; conditions: SNB-19, 48 h, read-out: GI

SMILES	Activity [1]	Activity (SR)	Activity (EKVX)	Activity (KM12 [2])	Activity [3]	Activity [4]	Activity (MDA-MB-435 [5])	Activity [6]	Activity [7]	Activity [8]	Activity [9]	Activity [10]	Activity (MDA-MB-468)	inhibition of growth at 10 µM [11]	inhibition of growth at 10 µM [12]	inhibition of growth at 10 µM [13]	inhibition of growth at 10 µM (KM12 [14])	inhibition of growth at 10 µM (MDA-MB-435 [15])	inhibition of growth at 10 µM [16]	inhibition of growth at 10 µM [17]	further results
C=C1CC[C@@H]2[C@](C)(COC(C)=O)[C@H](OC(C)=O)CC[C@@]2(C)[C@@H]1CC(NC1CCCC1)C1=CCOC1=O (stereo partly drawn)	37.5%	19.62%	52.44%	74.46%	67.48%	68.03%	75.73%	38.37%	68.98%	53.68%	68.47%	74.91%	34.72%	57.3%	74.8%	33%	25.5%	24.3%	11.8%	31%	growth inhibition (GI) (NCI-H322M): inactive; inhibition of growth at 10 µM (HT-29): 24.5%; inhibition of growth at 10 µM (SK-MEL-5): 65.7%; inhibition of growth at 10 µM (786-0): 7.49%; inhibition of growth at 10 µM [18]: 43.9%; inhibition of growth at 10 µM [19]: 25.1%
C=C1CC[C@@H]2[C@](C)(COC(C)=O)[C@H](OC(C)=O)CC[C@@]2(C)[C@@H]1CC(NCc1cccc(Cl)c1)C1=CCOC1=O (mixture of isomers)	27.25%	11.54%	77.89%	46.76%	38.27%	85.86%	51.65%	25.21%	47.44%	42.73%	60.33%	94.35%	25.62%	78.4%	33.7%	62.3%	53.2%	48.4%	35.9%	52.6%	inhibition of growth at 10 µM (NCI-H322M): 24.6%; inhibition of growth at 10 µM (HT-29): 74.5%; inhibition of growth at 10 µM [20]: 44.4%; inhibition of growth at 10 µM (786-0): 38%; inhibition of growth at 10 µM [18]: 53.1%; inhibition of growth at 10 µM [19]: 5.65%
C=C1CC[C@@H]2[C@](C)(COC(C)=O)[C@H](OC(C)=O)CC[C@@]2(C)[C@@H]1CC(NCc1ccc(F)cc1)C1=CCOC1=O (mixture of isomers)	1.27%	7.69%	50.01%	46.48%	32.04%	58.06%	32.73%	45.84%	23.7%	18.62%	28.29%	72.47%	27.52%	9.52%	81.2%	63%	53.5%	67.3%	51.6%	76.3%	inhibition of growth at 10 µM (NCI-H322M): 27.5%; inhibition of growth at 10 µM (HT-29): 78.7%; inhibition of growth at 10 µM (SK-MEL-5): 88.2%; inhibition of growth at 10 µM (786-0): 13.2%; inhibition of growth at 10 µM [18]: 68.7%; inhibition of growth at 10 µM [19]: 27.5%
C=C1CC[C@@H]2[C@](C)(COC(C)=O)[C@H](OC(C)=O)CC[C@@]2(C)[C@@H]1CC(NCc1ccccc1)C1=CCOC1=O (mixture of isomers)	3.18%	20.89%	53.91%	39.08%	47.31%	76.94%	27.9%	32.81%	31.82%	28.22%	23.47%	86.43%	22.86%	9.93%	58.3%	59%	60.9%	72.1%	37.1%	68.2%	inhibition of growth at 10 µM (NCI-H322M): 23%; inhibition of growth at 10 µM [20]: 31.8%; inhibition of growth at 10 µM (786-0): 28.6%; inhibition of growth at 10 µM [18]: 70.9%; inhibition of growth at 10 µM [19]: 13.6%
